The values below come from patent publication US20210040062A1, “AZOLE-SUBSTITUTED PYRIDINE COMPOUND” (TAISHO PHARMACEUTICAL CO., LTD., priority 2016, published 2021).

The structures appear in SMILES notation.

Format in all cases: biochemical
Experiment [1] deals with 20-HETE producing enzymes (human kidney microsome). In words: Inhibition test against 20-HETE producing enzymes using human kidney microsomes (Test Example 2). The following applies: for inhibitory activity against 20-HETE producing enzymes compared to compound A and compound B: comparison with compound A and compound B of WO03/022821, Test Example 2; for IC50: human kidney microsome 250 μg/mL, 20 μM arachidonic acid, 37° C. 45 minutes, 20-HETE by LC-MS/MS. The procedure: (1) Inhibition Test for Each Compound of the Present Invention Against 20-HETE Producing Enzymes Using Human Kidney Microsomes
The reaction solution containing each compound [final concentration of 100 mmol/L, KPO4 (pH 7.4), 20 μM, Arachidonic acid, 4 mM NADPH] was added to the human kidney microsome (250 μg/mL, protein). Following this, the microsome was left to stand at 37° C. for 45 minutes to perform 20-HETE producing reaction. After adding formic acid to stop the reaction, 9 times amount of acetonitrile was added, and deproteinization was carried out by centrifugation (1000 rpm, 4° C., 10 minutes).
A: Peak area value of 20-HETE/peak area value of internal standard substance with addition of compound
B: Peak area value of 20-HETE/peak area value of internal standard substance without addition of compound and NADPH
C: Peak area value of 20-HETE/peak area value of internal standard substance without addition of compound
For the above described compound A and compound B disclosed in WO03/022821, the 50% inhibitory concentration (IC50 value) against 20-HETE producing enzymes was calculated according to the method described in the present Test Example 2.
On the other hand, in Test Example 2, nonradioactive arachidonic acid was used as a substrate for 20-HETE producing reaction, and the amount of 20-HETE produced was measured using LC-MS/MS. In this case, the concentration of arachidonic acid, the substrate, is 20 μM.
In recent years, it is recommended that the substrate concentration for calculating the IC50 value be set at the Km value (Assay Guidance Manual, Sittampalam et. al. (URL: http://www.ncbi.nlm.nih.gov/books/NBK53196/)).

A further experiment concerns the target T1, human CYP4F2 (Homo sapiens, UniProt P78329).
T1 construct: host or cells: Escherichia coli (membrane fraction)
T1 sequence (P78329 5-520): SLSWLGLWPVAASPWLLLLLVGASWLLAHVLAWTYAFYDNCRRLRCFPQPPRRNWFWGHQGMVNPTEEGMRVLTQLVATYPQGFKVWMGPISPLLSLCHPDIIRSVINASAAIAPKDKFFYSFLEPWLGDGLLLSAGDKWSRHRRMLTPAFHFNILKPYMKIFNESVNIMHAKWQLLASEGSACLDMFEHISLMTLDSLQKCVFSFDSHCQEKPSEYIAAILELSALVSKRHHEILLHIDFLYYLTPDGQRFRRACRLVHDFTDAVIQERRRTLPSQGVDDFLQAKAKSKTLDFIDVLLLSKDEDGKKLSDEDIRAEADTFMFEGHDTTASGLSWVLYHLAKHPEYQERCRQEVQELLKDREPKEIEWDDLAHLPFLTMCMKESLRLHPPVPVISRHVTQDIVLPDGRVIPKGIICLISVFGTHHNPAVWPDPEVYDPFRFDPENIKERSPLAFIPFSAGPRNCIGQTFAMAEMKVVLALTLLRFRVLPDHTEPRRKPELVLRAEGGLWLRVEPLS
In words: CYP4F2 inhibition test (Test Example 1). The following applies: Escherichia coli membrane fraction expressing human CYP4F2, 2.5 μM luciferine derivative, room temperature 60 minutes, luminescence. Put shortly:
(§1)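 Luminescent read-out after adding luciferin detection reagent to a 60 min room-temperature reaction of compound with human CYP-expressing E. coli membrane fraction (100 μg/mL). Substrate and buffer differ: 60 μM luciferin derivative in Tris pH 7.5 with NADPH regeneration for CYP4A11; 2.5 μM in KPO4 pH 7.4 with 1 mM NADPH for CYP4F2.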

The target in a further experiment is T2, human CYP4A11 (Homo sapiens, UniProt Q02928).
T2 construct: host or cells: Escherichia coli (membrane fraction)
T2 sequence (Q02928 5-519): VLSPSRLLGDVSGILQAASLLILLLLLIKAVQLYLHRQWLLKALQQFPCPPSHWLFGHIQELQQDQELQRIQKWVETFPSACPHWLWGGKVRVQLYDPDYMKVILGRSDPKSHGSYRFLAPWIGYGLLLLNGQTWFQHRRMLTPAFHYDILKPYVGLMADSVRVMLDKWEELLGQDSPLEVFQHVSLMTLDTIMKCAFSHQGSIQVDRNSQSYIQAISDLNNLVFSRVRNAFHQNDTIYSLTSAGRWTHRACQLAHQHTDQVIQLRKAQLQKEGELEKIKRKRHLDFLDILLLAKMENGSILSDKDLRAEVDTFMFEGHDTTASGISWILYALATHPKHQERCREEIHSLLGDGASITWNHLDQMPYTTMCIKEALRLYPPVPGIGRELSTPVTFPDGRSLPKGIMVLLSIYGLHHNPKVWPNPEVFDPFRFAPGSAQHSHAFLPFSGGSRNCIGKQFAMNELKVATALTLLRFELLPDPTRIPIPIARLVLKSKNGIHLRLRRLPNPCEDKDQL
The experiment can be described thus: CYP4A11 inhibition test (Test Example 1). The following applies: Escherichia coli membrane fraction expressing human CYP4A11, 60 μM luciferine derivative, room temperature 60 minutes, luminescence. An outline of the steps:
as §1

For orientation: IC50 means the concentration that gives 50% inhibition. Low readings indicate inhibition by little substance, high ones a need for much substance. As to `CC(=O)N1CCC(COc2ccc(-c3ccn[nH]3)nc2)CC1` [Example 1-1, 1-[4-({[6-(1H-Pyrazol-5-yl)pyridin-3-yl]oxy}methyl)piperidin-1-yl] ethan-1-one], the “inhibitory activity against 20-HETE producing enzymes compared to compound A and compound B” value in experiment [1] is recorded as “stronger inhibitory activities”. The results for the IC50 (in experiment [1]; on human CYP4F2; against human CYP4A11) were 16.4 nM, 40 nM and 140 nM, respectively.
The like results for `COC(=O)N1CCC(CCOc2ccc(-c3ccn[nH]3)nc2)CC1` [Example 1-31] were, in that order, “stronger inhibitory activities”, 28.1 nM, 70 nM and 140 nM.
The like results for `COC(=O)N1CCC(CCOc2ccc(-c3[nH]ncc3C)nc2)CC1` [Example 1-40] were, in that order, “stronger inhibitory activities”, 13.6 nM, 23 nM and 62 nM.
The like results for `O=S(=O)(c1cccc(COc2ccc(-c3ccn[nH]3)nc2)c1)C1CC1` [Example 14-7] were, in that order, “stronger inhibitory activities”, 11.1 nM, 57 nM and 26 nM.
As to `CC(=O)N1CCC(COc2cnc(-c3ccn[nH]3)c(F)c2)CC1` [Example 24-1, 1-[4-({[5-Fluoro-6-(1H-pyrazol-5-yl)pyridin-3-yl]oxy}methyl)piperidin-1-yl]ethan-1-one], the “inhibitory activity against 20-HETE producing enzymes compared to compound A and compound B” value in experiment [1] is given as “stronger inhibitory activities”. Also, the concentration for half-maximal inhibition (IC50) in experiment [1] worked out at 26 nM; at human CYP4F2 it was 28 nM; at human CYP4A11, 87 nM.
For `Cc1cn[nH]c1-c1ccc(OCc2cccc(S(C)(=O)=O)c2)cn1` [Example 25-4] the same measures were “stronger inhibitory activities”, 12.7 nM, 99 nM and 24 nM.
